From US20240417798A1, “THERAPY SELECTION AND TREATMENT OF NEURODEGENERATIVE DISORDERS” (Anavex Life Sciences Corp., priority 2021, published 2024)

Key:
[1] = target: T1, Sigma-1 receptor (SIGMAR1) (Homo sapiens, UniProt Q99720); conditions: quantitative PET scan; cited from earlier work
T1 construct: host or cells: in vivo PET scan

[2] = tested on: patients with Parkinson's Disease Dementia (PDD); conditions: previously reported results; cited from earlier work
[3] = tested on: SIGMAR1; assay: SIGMAR1 levels in patients of the PDD-001 trial; assay type: in vivo, human; conditions: use by PDD patients; rise associated with improved attention measures and reduced MDS-UPDRS total and Part III
Description: The trial enrolled 132 adults, ages 50-85, with PDD, and was successfully concluded in September 2020. Participants, recruited at multiple sites in Spain and Australia, were randomly assigned to one of two doses groups (with an escalating ANAVEX 2-73 dose up to 30 or 50 mg oral capsules) or to a placebo, once daily for 14 weeks (see FIG. 1 for details). The trial's main goals were to assess the therapy's safety and changes in patients' cognitive function, measured using the cognitive drug research computerized assessment system—a test that looks at multiple cognitive skills, such as choice reaction time (choosing between similar objects), vigilance, and episodic memory (remembering new personal experiences or shared information). Secondary goals included changes in patients' motor abilities—assessed with the Movement Disorders Society Unified Parkinson's Disease Rating Scale (MDS-UPDRS) Part III—and sleep quality. […] This sleep disorder is associated with greater cognitive impairment and a higher risk of dementia. […] After 14 weeks, the MDS-UPDRS total score dropped by 10.98 points (indicating an easing in disease severity) in the high-dose group and rose by 3.53 points in the placebo group. This represented an adjusted mean improvement of 14.51 points—surpassing the established, clinically meaningful 7.1 point-cut-off—and a relative improvement of 18.9% over 14 weeks. […]

[4] = tested on: patients with Parkinson's Disease Dementia (PDD); assay: Phase 2 ANAVEX2-73-PDD-001 study, randomized, double blind, placebo-controlled, oral capsules once daily for 14 weeks; assay type: in vivo, human
Description: In order to assess the safety, tolerability and efficacy of ANAVEX®2-73 (blarcamesine) oral capsules in treating cognitive impairment in patients with Parkinson's Disease with Dementia (PDD), a phase 2 study, coded “ANAVEX®2-73-PDD-001 study” (FIG. 1), was conducted. The study was multi-center, randomized, double blind, placebo-controlled, parallel group with 3-arm. The study included a 2-week Screening/Baseline Observation Period and a 14-week Treatment Period (including a 2 week Titration Period), and a 2-week Safety Follow-Up Period. A total of 132 patients were enrolled in the study and were randomly assigned to three testing arms (FIG. 1). In ANAVEX2-73 High Dose arm, 44 patients were given oral capsules of ANAVEX2-73 once daily in an escalating dose of 10 mg, 20 mg, 30 mg and 50 mg. In ANAVEX2-73 Mid Dose arm, 44 patients were given oral capsules of ANAVEX2-73 once daily in an escalating dose of 10 mg, 20 mg, and 30 mg. In placebo group, 44 patients were given placebo capsules. Outcome measures included Cognitive Drug Research (CDR) Computerized Assessment System on Continuity of Attention; Change from Baseline to End of Treatment in Continuity of Attention as measured by Cognitive Drug Research (CDR) Computerized Assessment System Continuity of Attention; Number of participants with treatment-related adverse events as assessed by CTCAE v4.0 [Time Frame: 14 weeks]; Assessment of the safety and tolerability of ANAVEX2-73 compared to placebo; MDS-UPDRS Part III Total Score (Motor Scores); Change from baseline to End of Treatment as measured by MDS-UPDRS Part III Total Score (Motor Scores); SDS-CL-25 [Time Frame: 14 weeks]; Incidence of sleep disorders symptoms (SDS-CL-25); and DNA/RNA Sequencing.
The trial enrolled 132 adults, ages 50-85, with PDD, and was successfully concluded in September 2020. Participants, recruited at multiple sites in Spain and Australia, were randomly assigned to one of two doses groups (with an escalating ANAVEX 2-73 dose up to 30 or 50 mg oral capsules) or to a placebo, once daily for 14 weeks (see FIG. 1 for details). The trial's main goals were to assess the therapy's safety and changes in patients' cognitive function, measured using the cognitive drug research computerized assessment system—a test that looks at multiple cognitive skills, such as choice reaction time (choosing between similar objects), vigilance, and episodic memory (remembering new personal experiences or shared information). Secondary goals included changes in patients' motor abilities—assessed with the Movement Disorders Society Unified Parkinson's Disease Rating Scale (MDS-UPDRS) Part III—and sleep quality. […] This sleep disorder is associated with greater cognitive impairment and a higher risk of dementia. […]

[5] = tested on: gene clusters (Cluster 1, Cluster 2) of neurodegenerative pathways; assay: Whole Blood Transcriptomics Analysis (RNAseq) of PDD patients, baseline vs Week 14, WGCNA gene clusters and pathway analysis; assay type: in vivo, human
Description: In order to gain insights into ANAVEX 2-73 response pathways, during the Phase 2 study, patients' DNA and RNA sequencing were analyzed. Transcriptomic samples of 65 patients enrolled in either High Dose or Mid Dose arms were collected at baseline and at the end of treatment (Week 14). The expression of 14,150 genes was measured. No transformation was applied to the TPM values. Values associated with a with RIN≤4.0 were discarded. The actual dose of ANAVEX 2-73 (blarcamesine) that was given to each patient during the trial was assessed and integrated into the database. […]
The genes were clustered together using WGCNA, starting from their correlation of TPM expression values across samples. […] For each cluster, the contrast ActualDose, i.e. treated vs placebo were evaluated across all timepoints. […] The ratio between cluster size and number of pathways was calculated, and top 2 clusters were retained for further Analysis. […] Known interactions between the genes of the cluster were assessed using STRING database with the parameters of Edge score >0.150, and no text mining edges. […]
Whole Blood Transcriptomics Analysis (RNAseq) of patients with Parkinson's disease dementia (PDD) was performed for the ANAVEX®2-73-PDD-001 study (FIG. 1) at two timepoints: Baseline and Week 14 (end of trial). All available RNA samples with […] (RNA integrity number, using 130 samples) were analyzed. […]

T1 sequence (Q99720 whole entry, species assumed): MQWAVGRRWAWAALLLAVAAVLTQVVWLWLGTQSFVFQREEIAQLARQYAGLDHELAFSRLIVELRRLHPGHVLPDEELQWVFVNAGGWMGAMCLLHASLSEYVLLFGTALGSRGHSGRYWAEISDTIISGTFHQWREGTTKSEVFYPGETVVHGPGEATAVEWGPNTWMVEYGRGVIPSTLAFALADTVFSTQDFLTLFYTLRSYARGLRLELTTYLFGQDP

Q: For `CN(C)CC1CCOC1(c1ccccc1)c1ccccc1.Cl` (centres unmarked) [ANAVEX 2-73, tetrahydro-N, N-dimethyl-2,2-diphenyl-3-furanmethanamine hydrochloride], which “Direct occupancy at SIGMAR1” value [1] is on record?
A: Its value is “has been established”.

Q: And the Cognitive skills [2]?
A: The Cognitive skills was “significantly improved several cognitive skills”.

Q: What about the “REM sleep behavior disorder” value [2] of the same compound?
A: The value was “lessened REM sleep behavior disorder”.

Q: What about the Safety [2] of the same compound?
A: The Safety was “generally safe”.

Q: And the SIGMAR1 levels [3]?
A: Its SIGMAR1 levels is “significant increase in SIGMAR1 levels”.

Q: And the “Cognitive and sleep benefits, current trial data” value ([4]; data obtained from the current trial)?
A: Its value is “confirmed these cognitive and sleep benefits”.

Q: What about the “MDS-UPDRS total score, adjusted mean improvement vs placebo” value ([4]; high dose (50 mg), 14 weeks, clinically meaningful cut-off 7.1 points) of the same compound?
A: The value was 14.51 points.

Q: And the “MDS-UPDRS total score, relative improvement” value ([4]; high dose (50 mg), over 14 weeks)?
A: The value was 18.9%.

Q: And the “MDS-UPDRS total score, drop from baseline (easing in disease severity)” value ([4]; high-dose group (50 mg), after 14 weeks)?
A: The value was 10.98 points.

Q: And the “Expression of both identified gene clusters, treated patients compared to placebo” value ([5]; after 14 weeks of treatment)?
A: Its value is “up-regulated”.

Q: And the “Dysregulations of Cluster 1 and Cluster 2, link to dose” value ([5]; linear mixed effect model, Dunnett's test)?
A: The value was “significantly linked to the highest dose”.
